Measurements published in publication PMC7113690 (Antiviral Research, 2015).
Where a name gives a salt, the structure may show the parent alone. Read-outs that look alike come from different tables or passages of the source.

Tests used:
[1] = tested on: EBOV (Zaire strain) GP/HIV core pseudovirus (pEBOV); assay: organism not typed; type: cell-based, Ebola virus (Zaire strain); conditions: for EC50: read-out: EC50 pEBOV
[2] = tested on: VSV G/HIV core pseudovirus (pVSV); assay: organism not typed; type: cell-based; conditions: for EC50: read-out: EC50 pVSV
[3] = tested on: EBOV pseudovirus (pEBOV) entry into Vero cells; type: cell-based, Ebola virus (Zaire strain)
[4] = tested on: Ebola virus (Zaire strain) minigenome; type: cell-based
[5] = tested on: enterovirus 71 (EV-A71, strain G082); type: cell-based
[6] = tested on: Coxsackievirus A16 (CV-A16, strain SHZH05-1); type: cell-based
[7] = tested on: poliovirus 1 (PV1, strain Sabin); type: cell-based
eGFP-EBOV = conditions: cited from earlier work
EBOV = conditions: mouse, in vivo, 14 mg/kg; cited from earlier work
bacteremia = conditions: in vivo, 40 mg/kg; cited from earlier work
[8] = cited from earlier work
[9] = in vivo; cited from earlier work

Question: Which results are given for `O=C1C=C2C=C[C@@H]3C[C@@]2(O1)[C@H]1CCCCN31` [Securinine]?
Answer: EC50 ([1]; Vero, 72 h): 27.1 µM; EC50 ([2]; Vero, 72 h): 26.6 µM

Question: For `O=C(OCC(O)CO)c1ccccc1Nc1ccnc2cc(Cl)ccc12` (centres unmarked) [Glafenine], which EC50 ([1]; Vero, 72 h) is on record?
Answer: The EC50 was 11.1 µM.

Question: What about the EC50 ([2]; Vero, 72 h) of the same molecule?
Answer: Its EC50 is 10.9 µM.

Question: Which EC50 ([1]; Vero, 72 h) does the source give for `C[C@@H]1CC[C@H]2[C@@H](C)C(=O)O[C@@H]3O[C@@]4(C)CC[C@@H]1[C@]32OO4` [Artemisinin] here?
Answer: The EC50 was 74.1 µM.

Question: What about the EC50 ([2]; Vero, 72 h) of the same molecule?
Answer: The EC50 was 162 µM.

Question: Which results are given for `CC(C(=O)O)c1ccc(N2Cc3ccccc3C2=O)cc1` (centres unmarked) [Indoprofen]?
Answer: EC50 ([1]; Vero, 72 h): 9.37 µM; EC50 ([2]; Vero, 72 h): 8.51 µM

Question: Which EC50 ([1]; Vero, 72 h) does the source give for `CN1CCC(=C2c3ccccc3Sc3ccccc32)CC1` [Pimethixene maleate] here?
Answer: The EC50 was 10.7 µM.

Question: And the EC50 ([2]; Vero, 72 h)?
Answer: Its EC50 is 14.8 µM.

Question: What does the source list for `Fc1ccc([C@@H]2CCNC[C@H]2COc2ccc3c(c2)OCO3)cc1` [Paroxetine]?
Answer: EC50 ([1]; Vero, 72 h): 2.4 µM; EC50 ([2]; Vero, 72 h): 7.39 µM

Question: Which results are given for `C[C@H](N)[C@H](O)c1ccc(O)c(O)c1` [Levonordefrin]?
Answer: EC50 ([1]; Vero, 72 h): > 50 µM; EC50 ([2]; Vero, 72 h): > 50 µM

Question: Which “inhibition of pEBOV infection (in words)” value ([1]; 125 µM) does the source give for Teicoplanin here?
Answer: Its value is “completely inhibited”.

Question: What about the EC50 [1] of the same molecule?
Answer: Its EC50 is 2.38 µM.

Question: And the EC90 ([1]; read-out: EC90 pEBOV)?
Answer: The EC90 was 9.36 µM.

Question: What about the “inhibition of pVSV infection” value ([2]; 125 µM) of the same molecule?
Answer: Its value is “less than 20%”.

Question: What about the EC50 [2] of the same molecule?
Answer: The EC50 was greater than 125 µM.

Question: And the “inhibition of pEBOV infection, during infection” value [3]?
Answer: Its value is “efficiently inhibited infection”.

Question: What about the “inhibition of pEBOV infection, post-attachment” value [3] of the same molecule?
Answer: Its value is “no inhibition was detected”.

Question: What about the “inhibition of pEBOV infection, pre-attachment” value [3] of the same molecule?
Answer: Its value is “efficiently inhibited infection”.

Question: And the “inhibition of EBOV minigenome replication” value [4]?
Answer: Its value is “did not inhibit”.

Question: What about the “inhibition of EV-A71” value [5] of the same molecule?
Answer: The value was “no inhibition was observed”.

Question: And the “inhibition of CV-A16” value [6]?
Answer: The value was “no inhibition was observed”.

Question: What about the “inhibition of PV1” value [7] of the same molecule?
Answer: Its value is “no inhibition was observed”.

Question: And the CC50 (Vero cells)?
Answer: The CC50 was greater than 125 µM.

Question: What about the cytotoxicity (Vero cells) of the same molecule?
Answer: The cytotoxicity was “without cytotoxicity”.

Question: What about the “activity against eGFP-EBOV in vitro” value (eGFP-EBOV) of the same molecule?
Answer: The value was “active”.

Question: What about the “protection of EBOV-infected mice” value (EBOV) of the same molecule?
Answer: Its value is “no protection was observed”.

Question: And the “safety and decrease of bacteremia” value (bacteremia)?
Answer: Its value is “safe and effectively in decreasing bacteremia”.

Question: What about the “bound to plasma protein” value [8] of the same molecule?
Answer: Its value is 90%.

Question: And the “Cmin at which toxicity is seen” value [9]?
Answer: The value was no less than 60000 ng/mL.

Question: What about the “trough plasma concentration (Cmin)” value [9] of the same molecule?
Answer: Its value is 20000 to 60000 ng/mL.

Question: Which inhibition at 125 µM ([1]; Vero, read-out: inhibition of pEBOV) does the source give for `CN[C@H](CC(C)C)C(=O)N[C@H]1C(=O)N[C@@H](CC(N)=O)C(=O)N[C@H]2C(=O)N[C@H]3C(=O)N[C@H](C(=O)N[C@H](C(=O)O)c4cc(O)cc(O)c4-c4cc3ccc4O)[C@H](O)c3ccc(c(Cl)c3)Oc3cc2cc(c3O[C@@H]2O[C@H](CO)[C@@H](O)[C@H](O)[C@H]2O[C@H]2C[C@](C)(N)[C@H](O)[C@H](C)O2)Oc2ccc(cc2Cl)[C@H]1O` [vancomycin] here?
Answer: The inhibition at 125 µM was 24.7%.

Question: With `Oc1c(I)cc(I)c2cccnc12` [Iodoquinol] as the molecule, how does the EC50 ([1]; Vero, 72 h) read?
Answer: The EC50 was 3.5 µM.

Question: And the EC50 ([2]; Vero, 72 h)?
Answer: The EC50 was 3.45 µM.

Question: Which results are given for `CN(C)CCOc1ccc(/C(=C(/CCCl)c2ccccc2)c2ccccc2)cc1` [Toremiphene]?
Answer: EC50 ([1]; Vero, 72 h): 0.38 µM; EC50 ([2]; Vero, 72 h): 7.53 µM

Question: For `CCN(CC)CCOCCOC(=O)C(CC)(CC)c1ccccc1` [Oxeladin], which EC50 ([1]; Vero, 72 h) is on record?
Answer: Its EC50 is 8.06 µM.

Question: What about the EC50 ([2]; Vero, 72 h) of the same molecule?
Answer: Its EC50 is 38.1 µM.
